Laboratory results from US6596878B2, “Methods and compositions for inhibiting cell proliferative disorders” (Yissum Research & Development Company of the Hebrew …, priority 1994, dated 2003).

Assays:
Format in all cases: cell-based
PDGFR-β = molecular target: T1, PDGFR-β (Homo sapiens, UniProt P09619); assay: PDGFR-β cellular kinase assay (U1242 cells); details: Table V, read-out: Estimated IC50 Cellular Kinase Assays PDGFR-β
T1 construct: the human glioblastoma line U1242 that expresses PDGFR-β; endogenous in cells; host or cells: U1242 human glioblastoma cells
Excerpt: (§1) This example illustrates the ability of the exemplary compounds to inhibit receptor tyrosine kinases, such as HER2 and/or EGFR. The following target cells were used for cellular kinaseassays: NIH3T3 clone C7 (Honegger et al., supra) engineered to over-express human EGF receptor; NIH3T3 cells engineered to over-express a chimeric receptor containing the EGFR extracellular domain and the HER2 intracellular kinase domain; the human mammary carcinoma line BT474 (ATCC HTB2) expressing HER2; and the human glioblastoma line U1242 that expresses PDGFR-β. Growth assays were carried out using human mammary epithelial SKBR3 (ATCC HTB30) cells, SKOV3 (ATCC HTB77) human ovarian cancer cell line, A431 cells, MCF7 human breast carcinoma cells, MCF7 cells overexpress the HER2 kinase (MCF7-HER2), NIH3T3 cells, and NIH3T3 cells overexpressing the HER2 kinase (3T3-HER2).

SKBR3 cells = assay: SKBR3 growth assay (sulphorhodamine B); details: Homo sapiens, SK-BR-3, 96 h; Table V; 4 days, SRB; read-out: Estimated IC50 Growth Assays SKBR3 cells
Excerpt: as §1
SKBR3 cells over-express HER2. A431 cells over-express EGFR. These cells were dispensed into 96-well plates with test compounds. After 4 days the monolayers were TCA-fixed then stained with sulphorhodamine B. The absorbance versus log drug concentration was plotted and IC50 values estimated.
(4) Tris, crystallized free base—Fisher Catalog #BP152 Working solution: 10 mM tris=1.211 gram Trizma base/liter H2O.
(5) Aspirate growth media from 96 well plate containing control cells or cell treated with compounds, rinse wells 2 or 3 times with PBS and layer 200 μl cold 10% TCA onto each well. Fix cells for 60 minutes at 4° C.
(6) Discard TCA and rinse wells 5 times with distilled H2O. Dry plate upside down on paper towel.
(7) Stain fixed cells for 10 minutes with 100 μl 0.4% SRB per well.
(8) Pour off SRB solution and rinse wells 5 times with 1% acetic acid.
(9) Dry plate upside down on paper towel.
(10) After wells are completely dry, solubilize dye with 100 μl 10 mM Tris base per well for 5-10 minutes on titer plate shaker.
(11) Read optical density at dual wavelength mode 570 nm and 630 nm on Dynatech ELISA plate reader, Model MR 5000.

SKOV3 cells = assay: SKOV3 soft agar colony growth assay; details: Homo sapiens, SK-OV-3, 336 h, Table V, colony growth 2 weeks, read-out: Estimated IC50 Growth Assays SKOV3 cells
Excerpt: as §1
SKOV3 cells also over-express HER2. These cells were plated into soft agar with a test compound and colony growth was quantified 2 weeks. later using an Omnicon colony counter.
6. Soft Agar Assay Protocol
The soft agar assay is well known in the art as a method for measuring the effects of substances on cell growth. Unless otherwise stated the soft agar assays were carried out as follows:
(1) A Water bath set at 39° C. and another water bath at 37° C.
(2) 2×assay medium is comprised of 2×Dulbecco's Modified Eagle's Medium (DMEM) (Gibco Cat. #CA400-4ANO3) supplemented by the following:
20% Fetal Bovine Serum (FBS)
Non-essential Amino Acids (1:50 from 100×stock)
(3) 1×assay medium made of 1×DMEM supplemented with 10% FBS, 1 mM sodium pyruvate, 2 mM glutamine, 10 mM HEPES, non-essential amino acid (1:100 from 100×stock).
(4) 1.6% SeaPlaque Agarose in autoclave bottle
(5) Sterile 35 mm Corning plates (FMC Bioproducts Cat. #50102)
(6) Sterile 5 ml glass pipets (individually wrapped)
(7) Sterile 15 ml and 50 ml conical centrifuge tubes
(8) Pipets and sterile tips
(9) Sterile microcentrifuge tubes
(10) Cells in T75 flasks: SKOV-3 (ACTT HTB77).
(12) Procedure for making the base layer:
(a) Have all the media warmed up in the 37° C. water bath.
(b) To make 1×of assay medium+0.8% agar: make a 1:2 (vol:vol) dilution of melted agar (cooled to 39° C.), with 2×assay medium.
(c) Keep all media with agar warm in the 39° C. water bath when not in use.
(d) Dispense 1 ml of 1×assay medium+0.8% agar into dishes and gently swirl plate to form a uniform base layer. Bubbles should be avoided.
(e) Refrigerate base layers to solidify (about 20 minutes). Base layers can be stored overnight in the refrigerator.
(13) Procedure for collecting cells:
(a) Take out one flask per cell line from the incubator; aspirate off medium; wash once with PBS and aspirate off; add 3 ml of trypsin solution. […]
(d) Colonies that are 60 microns and larger are scored positive.

T1 sequence (P09619 33-1106): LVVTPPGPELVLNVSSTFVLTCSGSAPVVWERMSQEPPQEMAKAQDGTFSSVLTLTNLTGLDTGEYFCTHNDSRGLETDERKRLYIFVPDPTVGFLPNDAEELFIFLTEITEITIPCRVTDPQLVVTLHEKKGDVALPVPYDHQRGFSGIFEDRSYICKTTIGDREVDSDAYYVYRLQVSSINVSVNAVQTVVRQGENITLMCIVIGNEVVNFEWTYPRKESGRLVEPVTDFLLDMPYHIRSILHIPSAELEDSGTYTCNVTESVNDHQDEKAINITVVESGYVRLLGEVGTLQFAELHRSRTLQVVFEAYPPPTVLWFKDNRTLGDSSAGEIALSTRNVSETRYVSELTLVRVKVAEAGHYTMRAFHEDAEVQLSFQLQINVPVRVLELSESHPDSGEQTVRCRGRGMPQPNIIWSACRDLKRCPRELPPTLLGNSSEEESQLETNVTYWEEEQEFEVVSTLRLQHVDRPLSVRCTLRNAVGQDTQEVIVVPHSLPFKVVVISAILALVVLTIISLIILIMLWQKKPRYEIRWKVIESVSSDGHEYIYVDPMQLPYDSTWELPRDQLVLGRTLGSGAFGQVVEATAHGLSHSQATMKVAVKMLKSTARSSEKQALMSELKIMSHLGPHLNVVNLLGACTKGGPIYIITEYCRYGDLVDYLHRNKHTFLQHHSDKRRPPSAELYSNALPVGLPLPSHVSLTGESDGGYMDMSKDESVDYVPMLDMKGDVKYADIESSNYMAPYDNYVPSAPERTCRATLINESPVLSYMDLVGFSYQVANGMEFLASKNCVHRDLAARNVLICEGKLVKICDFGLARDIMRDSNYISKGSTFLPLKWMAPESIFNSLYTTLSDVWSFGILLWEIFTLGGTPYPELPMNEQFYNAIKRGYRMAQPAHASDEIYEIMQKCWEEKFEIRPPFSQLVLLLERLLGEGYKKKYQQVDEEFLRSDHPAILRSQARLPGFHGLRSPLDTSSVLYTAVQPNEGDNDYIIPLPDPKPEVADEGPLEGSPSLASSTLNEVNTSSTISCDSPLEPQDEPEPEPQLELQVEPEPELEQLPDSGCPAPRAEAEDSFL

**Q.** What does the source list for `CC(C)(C)c1cc(/C=C(\C#N)C(N)=S)cc(C(C)(C)C)c1O` [Compound M11]?
**A.** IC50 (PDGFR-β): > 100 µM; IC50 (SKBR3 cells): 4 µM; IC50 (SKOV3 cells): 0.5 µM

**Q.** For `N#C/C(=C\c1ccc(O)c(O)c1)C(=S)NCc1ccccc1` [Compound M13], which IC50 (PDGFR-β) is on record?
**A.** Its IC50 is 60 µM.

**Q.** And the IC50 (SKBR3 cells)?
**A.** Its IC50 is 25 µM.

**Q.** What about the IC50 (SKOV3 cells) of the same compound?
**A.** The IC50 was 20 µM.

**Q.** How did the IC50 (SKBR3 cells) turn out when `N#C/C(=C\c1ccc(O)c(O)c1)C(=O)Nc1cccc(C(F)(F)F)c1` [Compound M15] was run?
**A.** The IC50 was 20 µM.

**Q.** What about the IC50 (SKOV3 cells) of the same compound?
**A.** Its IC50 is 17 µM.

**Q.** Which IC50 (PDGFR-β) does the source give for `N#C/C(=C\c1cc(O)c(O)c(I)c1)C(=O)NCCCc1ccccc1` [Compound M16] here?
**A.** Its IC50 is 35 µM.

**Q.** And the IC50 (SKBR3 cells)?
**A.** Its IC50 is 9 µM.

**Q.** And the IC50 (SKOV3 cells)?
**A.** Its IC50 is 4.5 µM.
